Test results reported in US4146622A, “Aziridinyl quinone anti-transplanted tumor agents” (priority 1977, dated 1979).
Values after ≈ are worked out from the molar mass of the structure shown. Values joined by “and” are separate entries in the source; they are usually repeats but may differ in a detail not shown here. Equal entries are not always repeated. “Also recorded” adds a separate entry of the source.

Tests used:
[1] = system: lymphoid leukemia L1210; test: Intraperitoneal (IP) lymphoid leukemia L1210 transplanted mouse tumor test; type: in vivo, murine; conditions: for T - C (average weight change of test group minus control): day 5
Description: ^(a) Day 1-9 treatment schedule (9 injections)
^(b) Day 1,5,9 treatment schedule (3 injections)
^(c) Day 1 only treatment schedule (1 injection)
^(f) Percentage increase in life span of treated animals [(treated
survival .div. control survival) × 100%] - 100%

[2] = system: ependymoblastoma; test: Intracerebral (IC) ependymoblastoma (EM) brain tumor test; type: in vivo, murine; conditions: for antitumor activity: IC ependymoblastoma (EM); for OD (optimum dose) / animals alive per 6 test animals on day of termination / ILS (percentage increase in life span): Table X, IC ependymoblastoma; for OD (optimum dose): QD1-5; for animals alive per 6 test animals on day of termination / ILS (percentage increase in life span): QD1-5, at OD; for animals alive per 6 test animals on day of termination / survivors (number in parentheses) EM: day 60; for survivors (number in parentheses) EM: per 6 test animals
Description: ^c Ic tumor implantation, ip QD1-5 treatment schedule.
^g Number of animals alive per six test animals on day of termination
of experiment (day 99 for expt 133 and day 60 for expt 136 and 144).
A third IC transplanted mouse tumor model, the ependymoblastoma system, was also studied. This system requires intracerebral implantation of a solid tumor fragment while the IC L1210 and IC P388 systems utilize IC inoculated ascites tumor fluid. All three use IP drug treatment however. […] Cures (survivors from the group of six mice on the last day of the experiment) are indicated. Experiments 136 and 144 were terminated on day 60. Since the number of cures was about the same, the differences in T/C values in these two experiments reflect differences in the life span of the two different sets of control animals. Experiment 133 was terminated on day 99 with a resulting higher activity value.
The hydrophilic dihydroxypropylamino compound (No. 39), which was curative in the IP L1210 and P388 leukemia systems, was active but gave a large spread in ILS values (53-186%). […] Again, its hydrophilic character may present transport problems in this IC tumor system.

[3] = system: lymphoid leukemia L1210; test: Intracerebral (IC) lymphoid leukemia L1210 test; type: in vivo, murine; conditions: Table X
[4] = Room temperature water solubility; type: physicochemical; conditions: water; Table VII; room temperature, approximate; read-out: Approx. H2O Sol.
Procedure: In the following examples, all melting points are uncorrected and were recorded on a Thomas-Hoover capillary melting point apparatus. Elemental analyses were performed by NIAMDD, NIH, Bethesda, Maryland. Fluoranil, ethyleneimine and 2l -methylethyleneimine were obtained commerically. […] New compounds were identified by nmr and ir spectroscopy. In the tetraamino derivatives, the methylene protons of the aziridine rings usually occurred as a singlet at δ2.0-2.2 in CDCl3 or DMSO-d6. This absorption appeared at δ2.40 (CDCl3) for compound 11. Carbonyl absorption frequencies (nujol mull) occurred in the range 1620-1640 cm^-1 for the tetraamino compounds. Satisfactory elemental analyses (+0.4% of calculated values) are indicated by elemental symbols in Table VII. Room temperature water solubilities were determined by the incremental addition (pipet) of water to a weighed amount of compound with shaking. The solubility values in Table VII must be considered as approximate.

[5] = system: B16 melanocarcinoma; test: Intraperitoneal B16 melanocarcinoma transplanted mouse tumor test; type: in vivo, murine; conditions: for antitumor activity: B16 melanoma; for OD (optimum dose) / ILS (percentage increase in life span): Table IX; for OD (optimum dose): B16, QD1-9; for ILS (percentage increase in life span): B16, QD1-9, at OD
[6] = system: P388 lymphocytic leukemia; test: Intraperitoneal (IP) lymphocytic leukemia P388 transplanted mouse tumor test; type: in vivo, murine; conditions: for OD (optimum dose): IP P388, QD1-9
[7] = L1210 system, Q4D and QD1-9 schedules
[8] = Table VIII, IP L1210, Day 1 only (1 injection)
[9] = Table VIII, IP L1210, Day 1 only, at OD
[10] = Table VIII, IP L1210, Q4D(1,5,9) (3 injections)
[11] = Table VIII, IP L1210, Q4D(1,5,9), at OD
[12] = Table VIII, IP L1210, QD1-9 (9 injections)
[13] = Table VIII, IP L1210, QD1-9, at OD
[14] = Table IX, IP P388, QD1-9, at OD
[15] = IP L1210, tetraaminobenzoquinone series (Table VIII)

Row | SMILES | antitumor activity [1, 7] | OD (optimum dose) [2] | OD (optimum dose) [1, 10] | ILS (percentage increase in life span) [1, 11] | OD (optimum dose) [1, 12] | ILS (percentage increase in life span) [1, 13] | solubility [4] | OD (optimum dose) [5] | ILS (percentage increase in life span) [5] | ILS (percentage increase in life span) [2] | OD (optimum dose) ([6]; Table IX) | ILS (percentage increase in life span) [6, 14] | further results
1 | CCSC1=C(N2CC2)C(=O)C(SCC)=C(N2CC2)C1=O [Compound 5] | the activity was not reproducible | – | – | – | – | – | – | – | – | – | – | – | activity (%ILS) ([1]; IP L1210, Q4D schedule): 30%
2 | CCCSC1=C(N2CC2)C(=O)C(SCCC)=C(N2CC2)C1=O [Compound 6] | inactive | – | – | – | – | – | – | – | – | – | – | – | –
3 | CCOC(=O)NC1=C(N2CC2C)C(=O)C(NC(=O)OCC)=C(N2CC2C)C1=O (centres unmarked) [Compound 10] | abolished activity | – | – | – | – | – | – | – | – | – | – | – | –
4 | CCOC(=O)NC1=C(N2CC2(C)C)C(=O)C(NC(=O)OCC)=C(N2CC2(C)C)C1=O [Compound 11] | abolished activity | – | – | – | – | – | – | – | – | – | – | – | –
5 | CCOC(=O)NC1=C(NCCCl)C(=O)C(NC(=O)OCC)=C(NCCCl)C1=O [Compound 12] | activity was abolished | – | – | – | – | – | – | – | – | – | – | – | –
6 | CC(=O)NC1=C(N2CC2(C)C)C(=O)C(NC(C)=O)=C(N2CC2(C)C)C1=O [Compound 21] | abolished activity | – | – | – | – | – | – | – | – | – | – | – | –
7 | CNC1=C(N2CC2C)C(=O)C(NC)=C(N2CC2C)C1=O (centres unmarked) [Compound 26] | – | 10.0 mg/kg/injection and 5.0 mg/kg/injection | 12.5 mg/kg/injection | 93% and 52% | 5.0 mg/kg/injection | 69% and 37% | < 100 µg/mL | 5.0 mg/kg/injection | 70% and 48% | – | – | – | antitumor activity [2]: highly active; animals alive per 6 test animals on day of termination [2]: 1; ILS (%) EM ([2]; Table XI, outstanding activity): 294%; survivors (number in parentheses) EM ([2]; Table XI): 1; OD (optimum dose) ([3]; IC L1210, QD1-9): 5.0 mg/kg/injection and 10.0 mg/kg/injection; ILS (percentage increase in life span) ([3]; IC L1210, QD1-9, at OD): 39% and 25%; OD (optimum dose) [1, 8]: 5.0 mg/kg/injection and 10.0 mg/kg/injection; ILS (percentage increase in life span) [1, 9]: 42% and 39%; antitumor activity [5]: active; ILS (%) B16 ([5]; Table XI, outstanding activity): 70%
8 | O=C1C(F)=C(N2CC2)C(=O)C(N2CCOCC2)=C1N1CC1 [Compound 31, 2,5-diaziridinyl-3-fluoro-5-morpholino-1,4-benzoquinone] | – | 0.8 mg/kg/injection and 1.5 mg/kg/injection | – | – | – | – | 2000 µg/mL (≈ 6820 µM) | 0.7 mg/kg/injection | 18% and 9% | 49% and 40% | 3.0 mg/kg/injection and 6.0 mg/kg/injection | 57% and 54% | antitumor activity ([6]; IP P388): active
9 | CCCNC1=C(N2CC2)C(=O)C(NCCC)=C(N2CC2)C1=O [Compound 36] | – | 10.0 mg/kg/injection and 5.0 mg/kg/injection | 6.2 mg/kg/injection | 28% and 25% | 6.2 mg/kg/injection | 48% and 43% | < 100 µg/mL | 5.0 mg/kg/injection | 36% and 32% | 259% and 143% | 6.0 mg/kg/injection | 151% and 108% | antitumor activity [2]: highly active; also recorded: still very active; also recorded: most active; animals alive per 6 test animals on day of termination [2]: 2 and 1; survivors (number in parentheses) EM ([2]; Table XI): 2; antitumor activity [1, 15]: significant reduction in activity; animals alive per 6 test animals on day of termination ([6]; Table IX, IP P388, QD1-9, at OD, day 30): 2; survivors (number in parentheses) P388 ([6]; Table XI, per 6 test animals, day 30): 2
10 | CCCCNC1=C(N2CC2)C(=O)C(NCCCC)=C(N2CC2)C1=O [Compound 37] | – | 6.0 mg/kg/injection and 3.0 mg/kg/injection | 12.5 mg/kg/injection and 8.2 mg/kg/injection | 44% and 25% | 10.0 mg/kg/injection and 5.0 mg/kg/injection | 36% and 30% | < 100 µg/mL | 10.0 mg/kg/injection and 5.0 mg/kg/injection | – | – | 5.0 mg/kg/injection and 10.0 mg/kg/injection | 64% and 49% | antitumor activity [2]: has activity; antitumor activity [1, 15]: significant reduction in activity; OD (optimum dose) [1, 8]: 10.0 mg/kg/injection; ILS (percentage increase in life span) [1, 9]: 11% and 5%
11 | O=C1C(N2CCCC2)=C(N2CC2)C(=O)C(N2CCCC2)=C1N1CC1 [Compound 43, 2,5-Diaziridinyl-3,6-dipyrrolidino-1,4-benzoquinone] | – | 1.6 mg/kg/injection and 3.1 mg/kg/injection | 6.2 mg/kg/injection | 43% | 2.0 mg/kg/injection | – | 500 µg/mL (≈ 1520 µM) | 2.0 mg/kg/injection | 28% and 18% | – | – | 72% and 55% | OD (optimum dose) [1, 8]: 4.0 mg/kg/injection and 2.0 mg/kg/injection; T - C (average weight change of test group minus control) [1, 11]: -2.3 grams
12 | O=C1C(N2CCCCC2)=C(N2CC2)C(=O)C(N2CCCCC2)=C1N1CC1 [Compound 44] | – | – | – | 26% and 22% | 10.0 mg/kg/injection | 28% | < 100 µg/mL | 5.0 mg/kg/injection and 2.5 mg/kg/injection | – | 68% and 46% | 5.0 mg/kg/injection and 10.0 mg/kg/injection | 46% and 77% | ILS (percentage increase in life span) [1, 9]: 16% and 8%; T - C (average weight change of test group minus control) [1, 13]: -2.2 grams
13 | O=C1C(N2CC2)=C(N2CCCC(O)C2)C(=O)C(N2CC2)=C1N1CCCC(O)C1 (centres unmarked) [Compound 45] | – | – | 6.0 mg/kg/injection and 4.0 mg/kg/injection | 104% and 84% | 3.0 mg/kg/injection | 59% and 44% | 1000 µg/mL (≈ 2570 µM) | 1.0 mg/kg/injection | 40% and 37% | 64% and 48% | 1.0 mg/kg/injection | 95% and 78% | animals alive per 6 test animals on day of termination ([1]; Table VIII, IP L1210, Q4D(1,5,9), at OD, day 30): 2; antitumor activity [5]: approached minimal reproducible activity
